One series in a line: physchem. The class given is physicochemical.
Details of series [1]: method as in doi:10.1016/j.jddst.2024.105605. The following applies: 4% (w/v) polysorbate 20; cited from earlier work.

Each structure is given as a SMILES string. ≈ marks a conversion by molar mass, not a printed value.

Protocol for physchem: The mobile phase consisted of 50% acetonitrile and 50% purified water with a flow rate set to 1 mL/min and a column temperature set to 30 °C. The injection volume was 20 µL analyzed at a wavelength set to 230 nm for all analytical measurements.
Samples were prepared by the shake-flask method in glass vials containing 2 mg drug compound and 1 mL dispersion medium consisting of either buffer solutions (50 mM acetate buffer, pH 4.0 or 50 mM citric buffer, pH 3.0) or stabilizer solutions containing 1%, 2%, or 3% polysorbate 20 or vitamin E TPGS dissolved in the buffer solutions. The samples were rotated for 24 h at 40 rpm on a Multi-Rotator (PTR-60, Grant-Bio, Grant Instruments, Cambridgeshire, UK) while stored at 40 °C and protected from light. Samples were prepared in triplicate (n = 3). After equilibration, the samples were filtered with a 0.22 µm hydrophobic polytetrafluoroethylene membrane (VWR International, LLC, Radnor, PA, USA) with sampling tools equilibrated to 40 °C while the clear supernatant was diluted to an appropriate concentration with the mobile phase (50:50 acetonitrile and purified water) and analyzed by the method described above.

On to `COc1ccc2c(c1)c(CC(=O)O)c(C)n2C(=O)c1ccc(Cl)cc1` [indomethacin], for which the solubility – broadly, the dissolved amount per volume that the medium holds – at 24 h amounted to 2 µg/mL (≈ 5.59 µM) in “physchem” (40 °C, pH 3, aqueous buffer, thermodynamic from solid); 3 µg/mL (≈ 8.38 µM) in “physchem” (40 °C, pH 4, aqueous buffer, thermodynamic from solid); 640 µg/mL (≈ 1790 µM) in the series “physchem” (pH 4). Moreover, the solubility entry in series [1] is reported as “approximately 0.70 mg/mL”.

These data come from publication PMC11676886 (Pharmaceutics, 2024).
